Target: human APJ receptor (Homo sapiens (Human), UniProt P35414)
Experiment: Intracellular cAMP accumulation assay (APJ hcAMP, HTRF)
Type: cell-based
Conditions: human APJ, intracellular cAMP accumulation; read-out: Human APJ cAMP EC50 Potency range
In short: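 HEK293 cells stably expressing human APJ, 5,000 per well, incubated 30 min at rt with compound, […] and 2 μM forskolin. cAMP measured by HTRF against a cAMP standard curve as inhibition of forskolin-driven production. EC50 from variable-slope sigmoidal fit.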

Sequence of human APJ receptor (P35414 whole entry): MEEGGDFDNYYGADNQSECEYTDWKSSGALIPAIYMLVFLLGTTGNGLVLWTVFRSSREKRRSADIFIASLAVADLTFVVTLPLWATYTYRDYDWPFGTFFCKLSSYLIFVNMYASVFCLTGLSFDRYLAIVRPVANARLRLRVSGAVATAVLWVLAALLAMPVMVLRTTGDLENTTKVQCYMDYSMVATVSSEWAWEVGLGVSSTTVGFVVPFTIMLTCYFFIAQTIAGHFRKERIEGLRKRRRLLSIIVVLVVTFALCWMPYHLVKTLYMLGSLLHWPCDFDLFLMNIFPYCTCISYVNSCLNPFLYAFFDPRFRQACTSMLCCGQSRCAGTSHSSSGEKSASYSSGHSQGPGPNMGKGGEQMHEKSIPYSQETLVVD

EC50 [nM] | SMILES
0.01 to 10 | CCCCc1nc(=O)c(S(=O)(=O)c2ccc(-c3cccnc3C)cc2)c(O)n1[C@@H](COC)c1ccccc1 [Example 149, 2-butyl-6-hydroxy-1-[(1R)-2-methoxy-1-phenylethyl]-5-[4-(2-methylpyridin-3-yl)benzenesulfonyl]-1,4-dihydropyrimidin-4-one]
0.01 to 10 | CCCCc1nc(=O)c(S(=O)(=O)c2ccc(-c3ccc(F)nc3C)cc2)c(O)n1[C@@H](COC)c1ccccc1 [Example 150, 2-butyl-5-[4-(6-fluoro-2-methylpyridin-3-yl)benzenesulfonyl]-6-hydroxy-1-[(1R)-2-methoxy-1-phenylethyl]-1,4-dihydropyrimidin-4-one]
0.01 to 10 | CCCCc1nc(=O)c(S(=O)(=O)c2ccc(-c3cncc(C)c3)cc2)c(O)n1[C@@H](COC)c1ccccc1 [Example 151, 2-butyl-6-hydroxy-1-[(1R)-2-methoxy-1-phenylethyl]-5-[4-(5-methylpyridin-3-yl)benzenesulfonyl]-1,4-dihydropyrimidin-4-one]
0.01 to 10 | CCCCc1nc(=O)c(S(=O)(=O)c2ccc(-c3cnc(F)cc3C)cc2)c(O)n1[C@@H](COC)c1ccccc1 [Example 152, 2-butyl-5-[4-(6-fluoro-4-methylpyridin-3-yl)benzenesulfonyl]-6-hydroxy-1-[(1R)-2-methoxy-1-phenylethyl]-1,4-dihydropyrimidin-4-one]
0.01 to 10 | CCCCc1nc(=O)c(S(=O)(=O)c2ccc(-c3ccnc(C)c3)cc2)c(O)n1[C@@H](COC)c1ccccc1 [Example 153, 2-butyl-6-hydroxy-1-[(1R)-2-methoxy-1-phenylethyl]-5-[4-(2-methylpyridin-4-yl)benzenesulfonyl]-1,4-dihydropyrimidin-4-one]
10 to 100 | CCCCc1nc(=O)c(S(=O)(=O)c2ccc(-c3cc(C)nc(C)c3)cc2)c(O)n1[C@@H](COC)c1ccccc1 [Example 154, 2-butyl-5-[4-(2,6-dimethylpyridin-4-yl)benzenesulfonyl]-6-hydroxy-1-[(1R)-2-methoxy-1-phenylethyl]-1,4-dihydropyrimidin-4-one]
0.01 to 10 | CCCCc1nc(=O)c(S(=O)(=O)c2ccc(-c3ccncc3C)cc2)c(O)n1[C@H]1CCc2ccccc21 [Example 155, 2-butyl-1-[(1S)-2,3-dihydro-1H-inden-1-yl]-6-hydroxy-5-[4-(3-methylpyridin-4-yl)benzenesulfonyl]-1,4-dihydropyrimidin-4-one]
100 to 300 | CCCCc1nc(=O)c(S(=O)(=O)c2ccc(-c3ccnc(C)c3)cc2)c(O)n1[C@H]1CCc2ccccc21 [Example 156, 2-butyl-1-[(1S)-2,3-dihydro-1H-inden-1-yl]-6-hydroxy-5-[4-(2-methylpyridin-4-yl)benzenesulfonyl]-1,4-dihydropyrimidin-4-one]
0.01 to 10 | CCCCc1nc(=O)c(S(=O)(=O)c2ccc(-c3cccnc3C)cc2)c(O)n1[C@H]1CCc2ccccc21 [Example 157, 2-butyl-1-[(1S)-2,3-dihydro-1H-inden-1-yl]-6-hydroxy-5-[4-(2-methylpyridin-3-yl)benzenesulfonyl]-1,4-dihydropyrimidin-4-one]
0.01 to 10 | CCCCc1nc(=O)c(S(=O)(=O)c2ccc(-c3ccncc3C)cc2)c(O)n1[C@H](C)c1cccc(C#N)c1 [Example 158, 3-[(1R)-1-{2-butyl-6-hydroxy-5-[4-(3-methylpyridin-4-yl)benzenesulfonyl]-4-oxo-1,4-dihydropyrimidin-1-yl}ethyl]benzonitrile]
0.01 to 10 | CCCCc1nc(=O)c(S(=O)(=O)c2ccc(-c3ccnc(F)c3C)cc2)c(O)n1[C@H](C)c1cccc(C#N)c1 [Example 159, 3-[(1R)-1-{2-butyl-5-[4-(2-fluoro-3-methylpyridin-4-yl)benzenesulfonyl]-6-hydroxy-4-oxo-1,4-dihydropyrimidin-1-yl}ethyl]benzonitrile]
100 to 300 | CCCCc1nc(=O)c(S(=O)(=O)c2ccc(-c3cncc(C)c3)cc2)c(O)n1[C@H]1CCc2ccccc21 [Example 160, 2-butyl-1-[(1S)-2,3-dihydro-1H-inden-1-yl]-6-hydroxy-5-[4-(5-methylpyridin-3-yl)benzenesulfonyl]-1,4-dihydropyrimidin-4-one]
100 to 300 | CCCCc1nc(=O)c(S(=O)(=O)c2ccc(-c3cc(C)nc(C)c3)cc2)c(O)n1[C@H]1CCc2ccccc21 [Example 161, 2-butyl-1-[(1S)-2,3-dihydro-1H-inden-1-yl]-5-[4-(2,6-dimethylpyridin-4-yl)benzenesulfonyl]-6-hydroxy-1,4-dihydropyrimidin-4-one]
10 to 100 | CCCCc1nc(=O)c(S(=O)(=O)c2ccc(-c3cncc(F)c3)cc2)c(O)n1[C@H](C)c1cccc(C#N)c1 [Example 162, 3-[(1R)-1-{2-butyl-5-[4-(5-fluoropyridin-3-yl)benzenesulfonyl]-6-hydroxy-4-oxo-1,4-dihydropyrimidin-1-yl}ethyl]benzonitrile]
0.01 to 10 | CCCCc1nc(=O)c(S(=O)(=O)c2ccc(-c3ccc(F)nc3)cc2)c(O)n1[C@H]1CCc2ccccc21 [Example 163, 2-butyl-1-[(1S)-2,3-dihydro-1H-inden-1-yl]-5-[4-(6-fluoropyridin-3-yl)benzenesulfonyl]-6-hydroxy-1,4-dihydropyrimidin-4-one]
0.01 to 10 | CCCCc1nc(=O)c(S(=O)(=O)c2ccc(-c3ccnc(F)c3C)cc2)c(O)n1[C@H]1CCc2ccccc21 [Example 164, 2-butyl-1-[(1S)-2,3-dihydro-1H-inden-1-yl]-5-[4-(2-fluoro-3-methylpyridin-4-yl)benzenesulfonyl]-6-hydroxy-1,4-dihydropyrimidin-4-one]
0.01 to 10 | CCCCc1nc(=O)c(S(=O)(=O)c2ccc(-c3cccnc3C)cc2)c(O)n1[C@@H](CC)c1cccc(OC)c1 [Example 165, 2-butyl-6-hydroxy-1-[(1S)-1-(3-methoxyphenyl)propyl]-5-[4-(2-methylpyridin-3-yl)benzenesulfonyl]-1,4-dihydropyrimidin-4-one]
10 to 100 | CCCCc1nc(=O)c(S(=O)(=O)c2ccc(-c3ccc(F)nc3)cc2)c(O)n1[C@H](C)c1cccc(C#N)c1 [Example 166, 3-[(1R)-1-{2-butyl-5-[4-(6-fluoropyridin-3-yl)benzenesulfonyl]-6-hydroxy-4-oxo-1,4-dihydropyrimidin-1-yl}ethyl]benzonitrile]
0.01 to 10 | CCCCc1nc(=O)c(S(=O)(=O)c2ccc(-c3ccc(OC)nc3C)cc2)c(O)n1[C@H]1CCc2ccccc21 [Example 167, 2-butyl-1-[(1S)-2,3-dihydro-1H-inden-1-yl]-6-hydroxy-5-[4-(6-methoxy-2-methylpyridin-3-yl)benzenesulfonyl]-1,4-dihydropyrimidin-4-one]
0.01 to 10 | CCCCc1nc(=O)c(S(=O)(=O)c2ccc(-c3cncc(F)c3)cc2)c(O)n1[C@H]1CCc2ccccc21 [Example 168, 2-butyl-1-[(1S)-2,3-dihydro-1H-inden-1-yl]-5-[4-(5-fluoropyridin-3-yl)benzenesulfonyl]-6-hydroxy-1,4-dihydropyrimidin-4-one]
0.01 to 10 | CCCCc1nc(=O)c(S(=O)(=O)c2ccc(-c3ccnc(F)c3C)cc2)c(O)n1[C@@H](CC)c1cccc(OC)c1 [Example 169, 2-butyl-5-[4-(2-fluoro-3-methylpyridin-4-yl)benzenesulfonyl]-6-hydroxy-1-[(1S)-1-(3-methoxyphenyl)propyl]-1,4-dihydropyrimidin-4-one]
0.01 to 10 | CCCCc1nc(=O)c(S(=O)(=O)c2ccc(-c3cnc(F)cc3C)cc2)c(O)n1[C@H]1CCc2ccccc21 [Example 170, 2-butyl-1-[(1S)-2,3-dihydro-1H-inden-1-yl]-5-[4-(6-fluoro-4-methylpyridin-3-yl)benzenesulfonyl]-6-hydroxy-1,4-dihydropyrimidin-4-one]
0.01 to 10 | CCCCc1nc(=O)c(S(=O)(=O)c2ccc(-c3ccc(F)nc3C)cc2)c(O)n1[C@H]1CCc2ccccc21 [Example 171, 2-butyl-1-[(1S)-2,3-dihydro-1H-inden-1-yl]-5-[4-(6-fluoro-2-methylpyridin-3-yl)benzenesulfonyl]-6-hydroxy-1,4-dihydropyrimidin-4-one]
0.01 to 10 | CCCc1nc(=O)c(S(=O)(=O)c2ccc(-c3cncc(F)c3)cc2)c(O)n1[C@@H](COC)c1ccccc1 [Example 172, 5-[4-(5-fluoropyridin-3-yl)benzenesulfonyl]-6-hydroxy-1-[(1R)-2-methoxy-1-phenylethyl]-2-propyl-1,4-dihydropyrimidin-4-one]
0.01 to 10 | CCCc1nc(=O)c(S(=O)(=O)c2ccc(-c3cccnc3C)cc2)c(O)n1[C@@H](COC)c1ccccc1 [Example 173, 6-hydroxy-1-[(1R)-2-methoxy-1-phenylethyl]-5-[4-(2-methylpyridin-3-yl)benzenesulfonyl]-2-propyl-1,4-dihydropyrimidin-4-one]
0.01 to 10 | CCCc1nc(=O)c(S(=O)(=O)c2ccc(-c3ccc(F)nc3)cc2)c(O)n1[C@@H](COC)c1ccccc1 [Example 174, 5-[4-(6-fluoropyridin-3-yl)benzenesulfonyl]-6-hydroxy-1-[(1R)-2-methoxy-1-phenylethyl]-2-propyl-1,4-dihydropyrimidin-4-one]
0.01 to 10 | CCCc1nc(=O)c(S(=O)(=O)c2ccc(-c3ccncc3C)cc2)c(O)n1[C@@H](COC)c1ccccc1 [Example 175, 6-hydroxy-1-[(1R)-2-methoxy-1-phenylethyl]-5-[4-(3-methylpyridin-4-yl)benzenesulfonyl]-2-propyl-1,4-dihydropyrimidin-4-one]
0.01 to 10 | CCCc1nc(=O)c(S(=O)(=O)c2ccc(-c3ccnc(F)c3C)cc2)c(O)n1[C@@H](COC)c1ccccc1 [Example 176, 5-[4-(2-fluoro-3-methylpyridin-4-yl)benzenesulfonyl]-6-hydroxy-1-[(1R)-2-methoxy-1-phenylethyl]-2-propyl-1,4-dihydropyrimidin-4-one]
0.01 to 10 | CCCc1nc(=O)c(S(=O)(=O)c2ccc(-c3ccc(F)nc3C)cc2)c(O)n1[C@@H](COC)c1ccccc1 [Example 177, 5-[4-(6-fluoro-2-methylpyridin-3-yl)benzenesulfonyl]-6-hydroxy-1-[(1R)-2-methoxy-1-phenylethyl]-2-propyl-1,4-dihydropyrimidin-4-one]
